Measured values taken from patent publication US6962931B2, “Self-emulsifying formulations of cholesteryl ester transfer protein inhibitors” (Pfizer Inc., priority 2001, dated 2005).

How the values were obtained:
[1] = Microsolubility estimate by repeated addition of vehicle; assay type: physicochemical
Method: (§1) For CETP inhibitors where quantities were limited, an estimate of solubility was obtained by addition of vehicle to a known quantity of the compound and mixing in an ultrasonicator bath for 90 minutes, followed by overnight equilibration at ambient temperature. Addition of vehicle was repeated until a solution was achieved.
as §1, with “limited or the samples were amorphous solids,” for “limited,”, “achieved. From the total volume of vehicle added to solubilize the CETP inhibitor compound, the solubility value, or so-called microsolubility, was calculated by the equation: Weight of sample (mgA)/vehicle volume (mL)=Microsolubility (mgA/mL)” for “achieved.”

[2] = Extent of emulsification, droplet size by optical microscope; assay type: physicochemical
Method: The extent of emulsification was determined by mixing the preconcentrate and water in a ratio of 1:100 and 1:10 by gentle inversion (5×), visual inspection, and examination under an optical microscope, using a polarizing filter to check for the appearance of crystals. Droplet size determined by this approach is expressed as the upper limit for the average droplet size, since submicron droplets cannot be detected by this method.

[3] = Equilibrium solubility in excipients, vehicles and emulsion preconcentrates; assay type: physicochemical
Method: The solubility of CETP inhibitors in excipients and in formulations was determined by adding an excess of compound to the medium in question. The mixture was agitated by rotation over a period of days at ambient temperature until the concentration in solution had reached an equilibrium as judged by similar measurements for consecutive time points. Concentrations were measured by filtration of aliquots with a PTFE syringe filter and assay by HPLC as described in Example 11.
The solubility of crystalline CETP inhibitors in representative vehicles was determined by adding an excess of compound to the vehicle in question. The mixture was agitated by rotation over a period of days at ambient temperature until the concentration in solution had reached equilibrium as judged by similar measurements for consecutive time points. Concentrations were measured by filtration of aliquots with a PTFE syringe filter and assayed by HPLC.
The concentrations of CETP inhibitor in each vehicle were assayed at intervals by dilution of aliquots into acetonitrile and gradient HPLC analysis on a Water Symmetry C-8 column (3.9×150 mm, 5 micron) at 30° C. at a flow rate of 1 mL/min. […] The detection method was UV absorbance at 210 nm.

Pharmacokinetics in dogs = assay type: in vivo, Male Beagle dogs; conditions: for Cmax / Tmax: male, Beagle, dog, plasma, po
Method: Male Beagle dogs (n=6) between the ages of 2-5 and weighing 6-12 kg were dosed with capsules followed by 50 mL of water. […] The dogs were either fasted or fed just prior to dosing with 14 g of dry dog food and 8 gm olive oil. The same set of dogs were used for all formulations, except where indicated. […]
Unless otherwise indicated, results are for the fasted state. Miglyol® softgels have a very low fasted exposure and thus a high food effect. The fasted exposure is higher than that for crystalline suspension, while the fed exposure using this high oil meal is the same. Thus Miglyol softgels provide a lower food effect than crystalline drug. At the same dose of 90 mgA, formulations such as A, O, and C that include surfactants and cosolvent have much higher fasted exposures and only a ca. 3× food effect. The fed exposures are also higher than for Miglyol® 812 softgels and crystalline drug. Poorer fasted exposure was obtained for Formulation WW, which contains a high level of ethyl lactate as a cosolvent.

[4] = Emulsion from oil solution plus equal volume of water: particle size and stability; assay type: physicochemical
Method: An emulsion was prepared by combining 1 volume of oil solution with an equal volume of de-ionized water. […] The emulsion is then stirred continuously to maintain homogeneity.
An emulsion was prepared by combining 1 volume of oil solution with an equal volume of de-ionized water. This mixture was stirred for 10 minutes and then vortex mixed for 2 minutes. […] It was stirred continuously to maintain homogeneity.
An emulsion was prepared by combining combining 1 volume of oil solution with an equal volume of de-ionized water. This mixture was stirred for 10 minutes and then vortex mixed for 2 minutes. […] It was stirred continuously to maintain homogeneity.

[5] = Dynamic light scattering particle size analysis of emulsions; assay type: physicochemical
Method: Preliminary particle size analysis data has been obtained on selected formulations using a dynamic light scattering particle size analyzer (ZetaPals, Brookhaven Instruments, Inc.) for measurement of sub-micron particle distribution. The formulation solutions were diluted 1:100 in HPLC-grade water (previously filtered through a 0.22 μm syringe filter). The resulting mixture was gently inverted five times to create the emulsion. Each emulsion sample was then analyzed at a temperature of 37° C. Triplicate measurements were made at each time point (0, 30 min).

[6] = equilibrium, vehicle Miglyol 812
[7] = equilibrium, vehicle Miglyol 812/propylene carbonate/Cremophor EL (60/20/20)
[8] = 90 mg, Fed, Miglyol 812/Triacetin/Cremophor RH40/Capmul MCM (20/30/20/30)
[9] = 90 mg, fasted, Miglyol 812/Triacetin/Cremophor RH40/Capmul MCM (20/30/20/30)
[10] = preconcentrate Miglyol 812/Triacetin/Polysorbate 80/Capmul MCM 22/27/20/31 % v/v
[11] = 60 mg, fasted, Miglyol 812/Triacetin/Polysorbate 80/Capmul MCM (22/27/20/31)

With `CCC(CC)CC1(C(=O)Nc2ccccc2SC(=O)C(C)C)CCCCC1` [Compound B, Propanethioic acid, 2-methyl-, S-[2-[[[1-(2-ethylbutyl)cyclohexyl]carbonyl]amino]phenyl]ester] the Solubility ([1]; Capmul MCM, oil or lipid, thermodynamic from solid, read-out: Microsolubility) was < 100 mg/mL, the Solubility ([1]; Crodamol GTCC, oil or lipid, thermodynamic from solid, read-out: Microsolubility) was < 20 mg/mL and the Solubility ([1]; Crodamol GTCC/Capmul MCM/Polysorbate 80 (40/40/20), oil or lipid, thermodynamic from solid, read-out: Microsolubility) was < 100 mg/mL. For the same molecule, the Solubility ([1]; Olive oil, oil or lipid, thermodynamic from solid, read-out: Microsolubility) was < 100 mg/mL, the Solubility ([1]; PEG 400, organic solvent or mixture, thermodynamic from solid, read-out: Microsolubility) was < 100 mg/mL and the Solubility ([1]; oil or lipid, thermodynamic from solid, read-out: Microsolubility) was < 100 mg/mL. The Solubility ([1]; preconcentrate Miglyol 812/Triacetin/Polysorbate 80/Capmul MCM 20/30/20/30 % v/v, amorphous solid) was “≧100 mgA/mL” and the “Ave Droplet Size (1:100 dilution)” value ([2]; preconcentrate Miglyol 812/Triacetin/Polysorbate 80/Capmul MCM 20/30/20/30 % v/v) was <5 μ.

For `CC[C@@H]1C[C@H](N(Cc2cc(C(F)(F)F)cc(C(F)(F)F)c2)C(C)=O)c2cc(C(F)(F)F)ccc2N1C(=O)OC(C)C` [Compound D, [2R,4S] 4-[acetyl-(3,5-bis-trifluoromethyl-benzyl)-amino]-2-ethyl-6-trifluoromethyl-3,4-dihydro-2H-quinoline-1-carboxylic acid isopropyl ester], the Solubility ([3]; equilibrium, vehicle Capmul MCM) was 58 mgA/ml, the Solubility ([3]; equilibrium, vehicle Cremophor EL) was 18 mgA/ml and the Solubility [3, 6] was 61 mgA/ml. The Solubility ([3]; equilibrium, vehicle Miglyol 812/Cremophor EL 80/20) was 51 mgA/ml, the Solubility [3, 7] was 208 mgA/ml and the Solubility ([3]; equilibrium, vehicle Olive oil) was 13 mgA/ml. The Solubility ([3]; equilibrium, vehicle Olive oil/Cremophor EL 80/20) was 14 mgA/ml, the Solubility ([3]; equilibrium, vehicle Triacetin) was 239 mgA/ml and the Solubility ([3]; preconcentrate Miglyol 812/Triacetin/Cremophor RH40/Capmul MCM 20/30/20/30 % v/v) was 172 mgA/mL. The “AUG 0-tlast” value (Pharmacokinetics in dogs; Fed, 90 mg, Miglyol 812/Triacetin/Cremophor RH40/Capmul MCM (20/30/20/30), Tlast 24 hr) was 4840 ± 1230 ng·h/mL, the “AUG 0-tlast” value (Pharmacokinetics in dogs; fasted, 90 mg, 100 mg/mL in Miglyol 812/Triacetin/Cremophor RH40/Capmul MCM (20/30/20/30), Tlast 24 hr) was 3450 ± 960 ng·h/mL and the Cmax (Pharmacokinetics in dogs; [8]) was 1200 ± 410 ng/mL. For the same molecule, the Tmax (Pharmacokinetics in dogs; [8]) was 1.5 h, the Cmax (Pharmacokinetics in dogs; [9]) was 860 ± 310 ng/mL and the Tmax (Pharmacokinetics in dogs; [9]) was 1.7 h. The “chemical degradation or crystallization” value ([4]; Example 19 oil after storage for 8 days or emulsion after 24 hr) was “No chemical degradation based on HPLC analysis or crystallization based on microscopic examination was detected”.

Work on `CC[C@@H]1C[C@H](N(Cc2cc(C(F)(F)F)cc(C(F)(F)F)c2)C(=O)OC)c2cc(C(F)(F)F)ccc2N1C(=O)OC(C)C` [Compound E, [2R,4S] 4-[(3,5-Bis-trifluoromethyl-benzyl)-methoxycarbonyl-amino]-2-ethyl-6-trifluoromethyl-3,4-dihydro-2H-quinoline-1-carboxylic acid isopropyl ester] yielded a Solubility [3, 6] of 167 mgA/ml, a Solubility [3, 7] of 394 mgA/ml and a Solubility ([3]; equilibrium, vehicle Olive oil) of 39 mgA/ml. The Solubility [3, 10] was 308 mgA/mL, the “Ave Droplet Size (1:100 dilution)” value [2, 10] was <2 μ and the “Mean Diam.” value ([5]; 30 min., 100 mg/mL in Miglyol 812/Triacetin/Polysorbate 80/Capmul MCM (22/27/20/31)) was 175 nm. For the same molecule, the “Mean Diam.” value ([5]; 30 min., 200 mg/mL in Miglyol 812/Triacetin/Polysorbate 80/Capmul MCM (22/27/20/31)) was 251 ± 45 nm, the “Mean Diam.” value ([5]; Initial, 100 mg/mL in Miglyol 812/Triacetin/Polysorbate 80/Capmul MCM (22/27/20/31)) was 181 nm and the “Mean Diam.” value ([5]; Initial, 200 mg/mL in Miglyol 812/Triacetin/Polysorbate 80/Capmul MCM (22/27/20/31)) was 239 ± 17 nm. For the same molecule, the “AUG 0-tlast” value (Pharmacokinetics in dogs; fasted, 60 mg, 100 mg/mL in Miglyol 812/Triacetin/Polysorbate 80/Capmul MCM (22/27/20/31), Tlast 48 hr) was 2900 ± 670 ng·h/mL, the Cmax (Pharmacokinetics in dogs; [11]) was 200 ± 140 ng/mL and the Tmax (Pharmacokinetics in dogs; [11]) was 1.5 h. For the same molecule, the “chemical degradation or crystallization” value ([4]; Example 15 oil or emulsion after storage for 24 hr, HPLC, microscopy) was “No chemical degradation based on HPLC analysis or crystallization based on microscopic examination was detected” and the “average particle size of emulsion” value ([4]; Example 15 oil solution (Miglyol 812/propylene carbonate/Cremophor EL, 275 mg/g) plus equal volume water) was “less than 10 microns”.
